Assay results as given in patent US9732091B2, “Tryptophanol-derived oxazoloisoindolinones: small-molecule P53 activators” (UNIVERSIDADE DO PORTO, priority 2013, dated 2017).
“Also recorded” adds a separate entry of the source.

Legend:
[1] = apparent permeability coefficients; assay type: in vitro ADME
HCT116 p53^−/− = experiment: SRB growth inhibition assay in HCT116 p53^−/− colon carcinoma cells; assay type: cell-based, human; settings: Homo sapiens, HCT-116, 48 hours incubation, mean±S.E.M.
Description: (§1) Tumor cells were plated at 5.0×10^3 cells/well in 96-well plates and incubated for 24 hours. Cells were then exposed to serial dilutions of SLMP53-1, CP-31398 or PRIMA-1 (from 1.85 to 150 μM). The effect of the compounds was analyzed following 48 hours incubation, using the sulforhodamine B (SRB) assay. The solvent DMSO corresponding to the maximum concentration used in these assays (0.025%) was included as control. The GI50 value, the concentration of compound that causes 50% growth inhibition, was calculated for the tested compounds. Results are the mean±S.E.M. of three independent experiments.

HCT116 p53^+/+ cells = experiment: apoptosis by flow cytometry (FITC-Annexin V and propidium iodide), HCT116 p53^+/+; assay type: cell-based, human; settings: GI50 and double GI50, 24 hours
Description: Apoptosis was analyzed by flow cytometry using FITC-Annexin V and propidium iodide. The effect of compounds was analyzed after 24 hours treatment using the concentration of GI50 and double GI50. Histograms represent one of two independent experiments; quantification of cells in apoptosis represents the mean±S.E.M. of two independent experiments.

[2] = tested on: MDA-MB-231 breast tumor cells; experiment: Western blot of p53 and p53-target proteins, PARP cleavage, MDA-MB-231; assay type: cell-based, human; settings: 16.6 μM (GI50), 24/48 hours
Text: FIG. 7 illustrates that SLMP53-1 increases the levels of p53 and of proteins encoded by p53-target genes in MDA-MB-231 breast tumor cells.

human wt p53 = target: T1, human wt p53 (Homo sapiens, UniProt P04637); experiment: yeast-based assay, yeast cells expressing human wt p53 (growth by CFU counts, cell cycle, actin Western blot)
T1 construct: expressed in transfected cells
Description: FIG. 1 illustrates that SLMP53-1 and SLMP53-2 increase the p53 effects in yeast. Yeast cells expressing human wt p53 and transformed with the empty vector (control yeast) were incubated in selective induction medium in the presence of 0.1-25 μM compound or DMSO only, for 42 hours. (A) Effect of 10 μM SLMP53-1 and SLMP53-2 on the p53-induced yeast growth inhibition. Results are plotted setting as one unit the p53-induced growth inhibition in the presence of DMSO only. Growth was estimated by colony-forming unit (CFU) counts. […] (B) Dose-response curve for SLMP53-1 in yeast cells expressing human p53 and control yeast. Cells were incubated in selective medium with 0.1-25 μM of SLMP53-1 or DMSO only. Results are plotted setting as 100% growth inhibition the number of CFU obtained in the presence of DMSO only. Data are mean±S.E.M. of three independent experiments (*P<0.05; unpaired Student's t-test). (C) Effect of SLMP53-1 and SLMP53-2 on p53-induced S-phase cell cycle arrest in yeast. Cell cycle phases were analyzed by flow cytometry using Sytox Green and quantified using ModFit LT software; quantification of cell cycle phases represent the mean values. (D) Increase of p53-induced actin protein expression levels by SLMP53-1 and SLMP53-2 in yeast expressing p53. Western Blot band intensity was quantified using Pgk1p as loading control (with Bio-Profile Bio-1D++ software).
Using a yeast-based screening approach, the chiral compounds SLMP53-1 and SLMP53-2 were identified as potential activators of wt p53, from a chemical library of tryptophanol-derived oxazoloisoindolinones with general formula (I) shown in FIG. 1, wherein X, R^1, R^2, R^3, R^4, R^5, R^6, R^7, R^8, R^9 and R^10 are as defined herein, as well as their stereoisomers, enantiomers, ra.cemates, tautomers thereof or mixtures thereof; or a pharmaceutically acceptable salt, solvate or prodrug thereof. In the yeast cell model, compounds SLMP53-1 and SLMP53-2 increased the previously reported (Coutinho et al. FEBS Lett. 2009, 583, 3582-3588) p53-induced growth inhibition (FIGS. 1A and B) and S-phase cell cycle arrest (FIG. 1C).

mutant p53 R273H = target: T2, mutant p53 R273H (Homo sapiens, UniProt P04637, R273H); experiment: reactivation of mutant p53 in yeast (growth, CFU), R273H; assay type: cell-based; settings: 10 μM; yeast expressing R273H; 44 hours
T2 construct: expressed in transfected cells
Description: FIG. 6 illustrates that SLMP53-1 reactivates mutant p53s R273H, R175H and R280K in yeast. Yeast cells expressing R273H, R280K, Y220C or R175H were incubated in selective medium with 10 μM of SLMP53-1, 10 μM of CP-31398 (for R273H), 10 μM of PRIMA-1 (for R175H and R280K), 50 μM of PhiKan 083 (for Y220C) or DMSO only, for 44 hours. CP-31398, PRIMA-1 and PhiKan 083 were used as positive controls. Results are plotted setting as 100% growth the number of CFU obtained in the presence of DMSO only.
It is also shown that SLMP53-1 can reactivate some mutant p53 forms, particularly R273H, R280K and R175H (FIG. 6).

MDA-MB-231 (p53R280K) = experiment: SRB growth inhibition assay in MDA-MB-231 breast cancer cells; assay type: cell-based, human; settings: Homo sapiens, 48 hours incubation, mean±S.E.M.
Description: as §1, with “7.5×10^3” for “5.0×10^3”, “incubation period,” for “incubation,”, “value, which is” for “value,”

HCT116 p53^+/+ = experiment: Western blot of p53 and p53-target proteins, PARP cleavage, HCT116 p53^+/+; assay type: cell-based, human
Description: FIG. 2 illustrates that SLMP53-1 increases the levels of proteins encoded by p53 target genes (MDM2, p21, PUMA and BAX), and leads to PARP cleavage in colon carcinoma cells with wt p53 (HCT116 p53^+/+), but not in colon carcinoma cells without wt p53 (HCT116 p53^−/−). Western blot analysis was performed for human colon carcinoma cells after 16 (B, D, E) and 24 (A, C, F) hours treatment with 15.5 μM of SLMP53-1, 135 nM doxorubicin (DOXO; positive control) or DMSO only. The protein expression levels were evaluated by quantification of Western Blot band intensity (with Bio-Profile Bio-1D++ software) using GAPDH as loading control.

## C[C@]12OC[C@H](Cc3c[nH]c4ccccc34)N1C(=O)c1ccccc12 [SLMP53-1]
[1]
  apparent permeability coefficients: favorable
HCT116 p53^−/−
  GI50: 34 ± 3.5 µM
HCT116 p53^+/+ cells
  apoptosis: induces early and late apoptosis; also recorded: apoptotic cell death
[2]
  PARP cleavage: lead to PARP cleavage
  levels of p53 and of BAX, PUMA and p21: increased
Human wt p53; yeast expressing human wt p53, 10 μM, 42 hours, vs DMSO only
  p53-induced growth inhibition: increased
Human wt p53; yeast expressing human wt p53, flow cytometry
  p53-induced S-phase cell cycle arrest: increased
Human wt p53; yeast expressing p53, Western blot, vs DMSO only
  actin protein levels: increased the actin protein levels
Mutant p53 R273H
  yeast growth inhibition: significant growth inhibition
MDA-MB-231 (p53R280K)
  GI50: 16.6 ± 4.2 µM
HCT116 p53^+/+; 15.5 μM (GI50), 16 and 24 hours
  protein levels of p53 and of MDM2, p21, PUMA and BAX: increased
HCT116 p53^+/+; 24 hours
  PARP cleavage: led to PARP cleavage
